# Assay results reported in US20210115106A1, “MODIFIED T CELL RECEPTORS” (JANUX THERAPEUTICS, INC., priority 2017, published 2021).
# Ends that are not written are not given here.
# B1: J289_D10 (peptide)
# peptide: GGDVRCFMRMMECVLL
# Legend:
# [1] = target: T1, Neutravidin (Gallus gallus, UniProt P02701); test: Primary phagemid binding ELISA, Neutravidin control wells (TCR-1 panning); details: ELISA signal; Neutravidin alone
# Description: (§3) The next day the deep well plates were centrifuged to separate the soluble phagemid from the E. coli cells. […] After binding at 4 degrees the plates were washed, and specifically bound phage were detected by anti-m13 HRP conjugated antibodies using standard TMB-based chromogenic ELISA procedures. Daughter plates or individual wells were subjected to standard DNA sequencing for clonal peptide sequence identification.
# [2] = system: TCR-1; test: Secondary pMHC phagemid competition ELISA on TCR-1; format: binding; details: for Secondary pMHC phagemid competition ELISA binding with 200 nM pMHC competitor / Secondary pMHC phagemid competition ELISA IC-3 binding no pMHC competitor: ELISA signal; for Secondary pMHC phagemid competition ELISA binding with 200 nM pMHC competitor: 200 nM Human MAGE-A3 pMHC competitor; for % binding with pMHC competition: TCR-1, 200 nM pMHC competitor relative to no competitor
# Chain of TCR-1 (as listed by the source): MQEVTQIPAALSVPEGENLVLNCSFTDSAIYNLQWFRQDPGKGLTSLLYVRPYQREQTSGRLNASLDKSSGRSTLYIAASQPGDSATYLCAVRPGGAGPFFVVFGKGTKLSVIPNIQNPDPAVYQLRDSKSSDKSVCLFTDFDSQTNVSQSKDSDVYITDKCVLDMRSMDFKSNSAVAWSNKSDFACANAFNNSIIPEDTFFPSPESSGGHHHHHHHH
# Chain of TCR-1 (as listed by the source): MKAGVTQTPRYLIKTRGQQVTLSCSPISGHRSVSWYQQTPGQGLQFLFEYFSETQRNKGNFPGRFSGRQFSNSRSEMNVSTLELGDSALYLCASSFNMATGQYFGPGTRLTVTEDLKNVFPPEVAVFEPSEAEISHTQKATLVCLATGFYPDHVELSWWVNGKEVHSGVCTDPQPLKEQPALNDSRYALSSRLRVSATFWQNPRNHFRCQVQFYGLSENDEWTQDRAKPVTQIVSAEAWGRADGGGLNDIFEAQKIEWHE
# Description: Human MAGE-A3 pMHC was added to wells to block the active binding site. After a brief incubation period phagemid supernatants were added to both sets of wells. Following further incubation at 4 degrees the plates were washed and specifically bound phage were detected by anti-m13 HRP conjugated antibodies using standard TMB-based chromogenic ELISA procedures. Phagemid clones binding within the antigenic binding pocket would be blocked and be identified by a decreased ELISA signal, compared to a well lacking previous pMHC blockade.
# [3] = system: TCR-1; test: Primary phagemid binding ELISA, TCR-1 wells; details: ELISA signal; phagemid supernatant on Neutravidin captured biotin-conjugated TCR-1
# Description: as §3
# [4] = system: TCR-8; test: Primary phagemid binding ELISA, TCR-8 wells; details: ELISA signal; phagemid supernatant on Neutravidin captured biotin-conjugated TCR-8
# Chain of TCR-8 (as listed by the source): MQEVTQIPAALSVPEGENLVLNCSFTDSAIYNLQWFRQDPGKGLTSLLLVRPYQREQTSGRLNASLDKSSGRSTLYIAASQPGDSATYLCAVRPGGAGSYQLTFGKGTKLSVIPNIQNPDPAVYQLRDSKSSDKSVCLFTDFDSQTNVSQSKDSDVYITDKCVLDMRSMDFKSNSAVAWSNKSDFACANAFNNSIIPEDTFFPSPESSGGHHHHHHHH
# Chain of TCR-8 (as listed by the source): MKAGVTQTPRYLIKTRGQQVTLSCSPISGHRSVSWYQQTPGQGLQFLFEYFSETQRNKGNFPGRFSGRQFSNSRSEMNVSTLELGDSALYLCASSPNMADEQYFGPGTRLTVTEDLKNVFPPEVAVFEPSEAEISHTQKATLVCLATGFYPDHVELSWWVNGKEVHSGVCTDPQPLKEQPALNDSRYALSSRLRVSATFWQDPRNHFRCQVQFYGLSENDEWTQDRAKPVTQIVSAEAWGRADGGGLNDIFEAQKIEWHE
# [5] = target: T1, Neutravidin; test: Primary phagemid binding ELISA, Neutravidin control wells (TCR-8 panning); details: ELISA signal; Neutravidin alone
# Description: The next day the deep well plates were centrifuged to separate the soluble phagemid from the E. coli cells. The phagemid containing supernatants were then combined with PBS-Tween 20 (0.05%)+BSA (1%) blocking buffer and incubated in ELISA wells containing Neutravidin captured biotin-conjugated TCR-8 (Table 1) or Neutravidin alone. After binding at 4 degrees the plates were washed and specifically bound phage were detected by anti-m13 HRP conjugated antibodies using standard TMB-based chromogenic ELISA procedures. Daughter plates or individual wells were subjected to standard DNA sequencing for clonal peptide sequence identification.
# [6] = system: TCR-8; test: Secondary pMHC phagemid competition ELISA on TCR-8; format: binding
# Description: TCR-8 immobilized and blocked 96-well ELISA plates similar to above were prepared. Tetrameric human MAGE-A3 pMHC was first added to wells to block the active binding site. After a brief incubation period (30-60 minutes) phagemid supernatants were added to both sets of wells. Following further incubation at 4 degrees the plates were washed and specifically bound phage were detected by anti-m13 HRP conjugated antibodies using standard TMB-based chromogenic ELISA procedures.
# [7] = target: TCR-1 binding to MAGE-A3 pMHC; test: Peptide inhibition of TCR-1 kinetic binding to MAGE-A3 pMHC (BLI); details: 50 nM TCR-1; result in words
# Description: Zero concentration of inhibitory peptide (100% binding) or zero concentration of TCR (0% binding) was used as a control. Biotinylated pMHC was captured on streptavidin biosensors. Sensors were quenched using excess biocytin and then baselined in buffer. Inhibitory peptide and TCR mixtures were associated onto the pMHC loaded biosensor. Association signal was monitored in real-time. Biosensors were then transferred to buffer and the dissociation signal was measured in real-time.
# Zero concentration of inhibitory peptide (100% binding) or zero concentration of TCR (0% binding) was used as a control. Biotinylated pMHC was captured on streptavidin biosensors. Sensors were quenched using excess biocytin and then baselined in buffer. […] Association signal was monitored in real-time. Biosensors were then transferred to buffer and the dissociation signal was measured in real-time. Data was baseline corrected. The maximal association signal was normalized from 100% (0 uM inhibitory peptide control) to 0% (0 uM TCR control) and plotted versus log-scale inhibitory peptide concentration. […]
# Inhibitory peptide titrated in a 2-fold dilution series starting from 100 uM was first incubated with a constant concentration of 50 nM TCR. […] Association signal was monitored in real-time. Biosensors were then transferred to buffer and the dissociation signal was measured in real-time. […]
# [8] = system: TCR-1, TCR-8, TCR-9, TCR-10; test: BLI binding specificity of Peptide-5 against TCR-1 and closely related TCRs; details: TCRs from 50 nM or at 100 uM on saturating Peptide-5
# Description: The other TCRS chosen are closely related to the target TCR-1. BLI based kinetic binding of TCR-land closely related TCRS, TCR-8, TCR-9, and TCR-10 to inhibitory peptides was measured using a ForteBio Octet RED96 instrument. Biotinylated peptides were first captured on streptavidin biosensors. Sensors were quenched using excess biocytin and then baselined in buffer. TCRs were titrated in a 2-fold dilution series starting from 50 nM and were associated onto the inhibitory peptide loaded biosensor. Association signal was monitored in real-time. Biosensors were then transferred to buffer and the dissociation of TCR was measured in real-time. Response data was baseline corrected and fit to a 1:1 binding model used to calculate association and dissociation rates.
# BLI based kinetic binding of TCR-land closely related TCRS, TCR-8, TCR-9, and TCR-10 to inhibitory peptides was measured using a ForteBio Octet RED96 instrument. Biotinylated peptides were first captured on streptavidin biosensors until signal saturation. Sensors were quenched using excess biocytin and then baselined in buffer. TCRs were associated 100 uM onto the inhibitory peptide loaded biosensor. Association signal was monitored in real-time. Biosensors were then transferred to buffer and the dissociation of TCR was measured in real-time. […]
# [9] = target: TCR-1; test: ELISA-based binding of TCR-1 to synthetic peptides; details: result in words; numbers are in Table 3, not printed here
# Description: (§1) ELISA-based binding: High binding plates were first coated with neutravidin. Neutravidin coated plates were blocked using bovine serum albumin in buffer and washed. Biotinylated peptide or pMHC at a single concentration of 100 nM was captured on neutravidin coated plates, quenched using excess biocytin, and washed. […] TCR was then titrated onto the peptide or pMHC captured plates for 1 hour and washed. […] Plates were then developed using tetramethylbenzidine (TMB) for 5-10 min and stopped using acid.
# as §1, with “High” for “ELISA-based binding: High”, “peptide” for “peptide or pMHC”, “acid. Absorbance at 450 nm was measured for each plate and plotted versus log-scale TCR concentration. […]” for “acid.”
# High binding plates were first coated with neutravidin. Neutravidin coated plates were blocked using bovine serum albumin in buffer and washed. […] Absorbance at 450 nm was measured for each plate and plotted versus log-scale TCR concentration.
# [10] = target: TCR-1 binding to MAGE-A3 pMHC; test: Peptide inhibition of TCR-1 binding to MAGE-A3 pMHC in competitive binding ELISA; details: 1 nM TCR-1, result in words
# Description: (§2) Peptide inhibition in competitive binding ELISAs: High binding plates were first coated with neutravidin. Neutravidin coated plates were blocked using bovine serum albumin in buffer and washed. Biotinylated pMHC at a single concentration of 100 nM was captured on neutravidin coated plates, quenched using excess biocytin, and washed. […] Inhibitory peptide and TCR mixtures were then added to the pMHC captured plates for 30 min and washed. […] Plates were then developed using tetramethylbenzidine (TMB) for 5-10 min and stopped using acid.
# as §2, with “High” for “Peptide inhibition in competitive binding ELISAs: High”, “acid. Absorbance at 450 nm was measured for each plate and plotted versus log-scale inhibitory peptide concentration.” for “acid.”
# High binding plates were first coated with neutravidin. Neutravidin coated plates were blocked using bovine serum albumin in buffer and washed. […] Absorbance at 450 nm was measured for each plate and plotted versus log-scale inhibitory peptide concentration.
# [11] = target: T1, Neutravidin; test: primary phagemid binding ELISA, Neutravidin alone
# T1 sequence (P02701 25-152): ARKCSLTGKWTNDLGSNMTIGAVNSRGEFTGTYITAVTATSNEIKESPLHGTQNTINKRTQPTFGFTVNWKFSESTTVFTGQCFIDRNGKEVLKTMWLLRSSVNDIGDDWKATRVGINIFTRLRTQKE
molecule,measurement,setting,value
GGDVRCFMRMMECVLL [J289_D10],Primary Phagemid binding ELISA Neutravidin control wells,[1],0.120
same,Secondary pMHC phagemid competition ELISA binding with 200 nM pMHC competitor,[2],0.132
same,Secondary pMHC phagemid competition ELISA IC-3 binding no pMHC competitor,[2],1.881
same,% binding with pMHC competition,[2],7%
GGLADYCEHPMCYWYS [J250_G02],Primary Phagemid binding ELISA TCR-1 wells,[3],3.122
same,Primary Phagemid binding ELISA Neutravidin control wells,[1],0.152
GGLADYCEHPMCYWYS [J272_B10],Primary Phagemid binding ELISA Neutravidin control wells,[1],0.068
same,Secondary pMHC phagemid competition ELISA binding with 200 nM pMHC competitor,[2],0.075
same,Secondary pMHC phagemid competition ELISA IC-3 binding no pMHC competitor,[2],1.683
same,% binding with pMHC competition,[2],4%
GGVICENWQGDRVCWF [J308_A03] (phagemid-displayed),Primary phagemid binding ELISA TCR-8 wells,[4],3.157
same,Primary phagemid binding ELISA Netravidin Control wells,[5],0.132
GGVICENWQGDRVCWF [J308_A09] (phagemid-displayed),Primary phagemid binding ELISA TCR-8 wells,[4],3.065
same,Primary phagemid binding ELISA Netravidin Control wells,[5],0.236
same,Secondary pMHC phagemid competition ELISA binding with 100 nM pMHC tetramer competitor,"[6]; ELISA signal, 100 nM tetrameric human MAGE-A3 pMHC",0.570
same,Secondary pMHC phagemid competition ELISA TCR-8 binding no pMHC competitor,"[6]; ELISA signal, no pMHC competitor",1.877
same,% binding with pMHC competition,"[6]; TCR-8, 100 nM pMHC tetramer competitor relative to no competitor",30%
"GGVSCKDVYDEAFCWT [Peptide-5, synthesized with a biotinylated linker and C-terminal amidation]","IC50, inhibition of TCR-1 binding to MAGE-A3 pMHC",[7],lowest
same,binding specificity for TCR-1 against closely related TCRs,[8],selective for TCR-1
"Peptide-24: Peptide-5 alanine scan peptide, substitution of lysine at the 6th amino acid position (GGVSCADVYDEAFCWT-NH2; not fully specified; cysteine pairing not given here; also: biotinylated linker, place not given here)",binding EC50 (TCR-1 binding to peptide by ELISA),[9],mild improvements
same,competitive binding IC50,[10],mild improvement
B1,ELISA signal (Neutravidin control wells),[11],0.12
